We go through 30 molecules from US10160755B2 (Plexxikon Inc., priority 2015, dated 2018).

In this assay the target is T1, FLT3-D835Y (Homo sapiens, UniProt P36888, D835Y).
T1 construct: purchased Invitrogen PV3967
T1 sequence (P36888 27-993 D835Y): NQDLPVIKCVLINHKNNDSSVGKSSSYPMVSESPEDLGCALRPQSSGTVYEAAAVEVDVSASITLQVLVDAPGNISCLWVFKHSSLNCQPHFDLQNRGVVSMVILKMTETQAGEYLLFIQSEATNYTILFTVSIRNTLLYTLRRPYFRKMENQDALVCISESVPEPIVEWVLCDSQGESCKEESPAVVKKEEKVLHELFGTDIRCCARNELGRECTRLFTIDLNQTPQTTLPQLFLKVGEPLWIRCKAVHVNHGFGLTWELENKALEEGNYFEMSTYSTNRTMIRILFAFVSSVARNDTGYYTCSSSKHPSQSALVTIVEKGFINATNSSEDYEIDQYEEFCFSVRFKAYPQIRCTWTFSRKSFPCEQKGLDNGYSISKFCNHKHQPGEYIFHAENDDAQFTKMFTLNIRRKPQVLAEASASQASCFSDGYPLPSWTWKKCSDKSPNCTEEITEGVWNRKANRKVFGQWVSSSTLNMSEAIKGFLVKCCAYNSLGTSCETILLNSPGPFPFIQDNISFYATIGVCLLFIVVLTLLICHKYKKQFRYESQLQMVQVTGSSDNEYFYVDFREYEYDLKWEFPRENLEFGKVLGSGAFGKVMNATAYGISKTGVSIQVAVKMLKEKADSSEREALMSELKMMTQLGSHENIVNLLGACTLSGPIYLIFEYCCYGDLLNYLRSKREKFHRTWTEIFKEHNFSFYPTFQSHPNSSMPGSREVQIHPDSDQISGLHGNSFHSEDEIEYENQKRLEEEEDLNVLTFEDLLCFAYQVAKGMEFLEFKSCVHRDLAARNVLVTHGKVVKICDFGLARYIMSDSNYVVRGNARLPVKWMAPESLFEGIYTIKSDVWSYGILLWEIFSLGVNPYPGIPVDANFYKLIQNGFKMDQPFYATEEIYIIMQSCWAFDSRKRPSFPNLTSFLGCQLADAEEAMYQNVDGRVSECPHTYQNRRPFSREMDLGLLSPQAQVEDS
As to the kind of experiment: FLT3-D835Y biochemical kinase assay (AlphaScreen). A digest of the protocol:
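Recombinant enzyme phosphorylated biotin-poly(Glu4-Tyr) peptide (30 nM final); ATP final 10 μM for FLT3-D835Y, 100 μM for FLT3-ITD. AlphaScreen read-out: streptavidin donor and anti-phosphotyrosine (PY20) acceptor beads, 20 and 60 min at room temperature; inhibition seen as drop in 580 nm proximity signal; IC50 determined.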
A general note: Alpha assays give light when donor and acceptor beads are brought close together.

Broadly, the IC50 is the concentration needed to halve the response being measured. Higher therefore signals weaker potency. `c1cc(-c2cnc3[nH]cc(-c4ccc5ncn(C6CCCNC6)c5c4)c3c2)cc(N2CCOCC2)n1` (stereo not drawn) [P-223, 4-[4-[3-[3-(3-piperidyl)benzimidazol-5-yl]-1H-pyrrolo[2,3-b]pyridin-5-yl]-2-pyridyl]morpholine]: the IC50 was in the range of 0.0001 to 1 µM.

In turn, `CCCS(=O)(=O)Nc1cccc(-c2cnc3[nH]cc(-c4ccc5ncn(C(C)(C)C)c5c4)c3n2)c1` [P-225, N-[3-[7-(3-tert-butylbenzimidazol-5-yl)-5H-pyrrolo[2,3-b]pyrazin-2-yl]phenyl]propane-1-sulfonamide] yielded an IC50 of 0.0001 to 1 µM. `CC(C)(C)n1cnc2ccc(-c3c[nH]c4ncc(C(=O)Nc5cccc(C#N)c5)cc34)cc21` [P-218, 3-(3-tert-butylbenzimidazol-5-yl)-N-(3-cyanophenyl)-1H-pyrrolo[2,3-b]pyridine-5-carboxamide] returned an IC50 of 0.0001 to 1 µM. In the case of `N#Cc1cccc(C(=O)Nc2cnc3[nH]cc(-c4ccc5ncn(C6CCCNC6)c5c4)c3c2)c1` (stereo not drawn) [P-236, 3-cyano-N-[3-[3-(3-piperidyl)benzimidazol-5-yl]-1H-pyrrolo[2,3-b]pyridin-5-yl]benzamide] it was 0.0001 to 1 µM. `CCCS(=O)(=O)Nc1cccc(-c2cnc3[nH]cc(-c4ccc5ncn(C(C)(C)C)c5c4)c3c2)c1` [P-216, N-[3-[3-(3-tert-butylbenzimidazol-5-yl)-1H-pyrrolo[2,3-b]pyridin-5-yl]phenyl]propane-1-sulfonamide] returned an IC50 of 0.0001 to 1 µM. In the case of `CC(C)(C)n1cnc2ccc(-c3c[nH]c4ncc(-c5cccc(S(=O)(=O)N6CCCC6)c5)nc34)cc21` [P-229, 7-(3-tert-butylbenzimidazol-5-yl)-2-(3-pyrrolidin-1-ylsulfonylphenyl)-5H-pyrrolo[2,3-b]pyrazine] it was 0.0001 to 1 µM; in that of `O=S1(=O)CCCCN1c1cccc(-c2cnc3[nH]cc(-c4ccc5ncn(C6CCCNC6)c5c4)c3c2)c1` (stereo not drawn) [P-224, 2-[3-[3-[3-(3-piperidyl)benzimidazol-5-yl]-1H-pyrrolo[2,3-b]pyridin-5-yl]phenyl]thiazinane 1,1-dioxide], 0.0001 to 1 µM.

Molecule `COc1cc(-c2cnc3[nH]cc(-c4ccc5ncn(C6CCCNC6)c5c4)c3n2)cc(OC)n1` (stereo not drawn) [P-195, 2-(2,6-dimethoxy-4-pyridyl)-7-[3-(3-piperidyl)benzimidazol-5-yl]-5H-pyrrolo[2,3-b]pyrazine] yielded an IC50 of 0.0001 to 1 µM. The figure for `CN(c1cccc(-c2cnc3[nH]cc(-c4ccc5ncn(C)c5c4)c3n2)c1)S(C)(=O)=O` [P-150, N-methyl-N-[3-[7-(3-methylbenzimidazol-5-yl)-5H-pyrrolo[2,3-b]pyrazin-2-yl]phenyl]methanesulfonamide] is 0.0001 to 1 µM. In the case of `O=S(=O)(c1cccc(-c2cnc3[nH]cc(-c4ccc5ncn(C6CCCNC6)c5c4)c3c2)c1)N1CCCC1` (stereo not drawn) [P-222, 1-(3-piperidyl)-6-[5-(3-pyrrolidin-1-ylsulfonylphenyl)-1H-pyrrolo[2,3-b]pyridin-3-yl]benzimidazole] it was 0.0001 to 1 µM. In turn, `CC(C)(C)n1cnc2ccc(-c3c[nH]c4ncc(-c5cccc(N6CCCCS6(=O)=O)c5)nc34)cc21` [P-227, 2-[3-[7-(3-tert-butylbenzimidazol-5-yl)-5H-pyrrolo[2,3-b]pyrazin-2-yl]phenyl]thiazinane 1,1-dioxide] came in with an IC50 of 0.0001 to 1 µM.

The molecule `COc1cnc2[nH]cc(-c3ccc4ncn(-c5ccc(F)cc5)c4c3)c2c1` [P-103, 1-(4-fluorophenyl)-6-(5-methoxy-1H-pyrrolo[2,3-b]pyridin-3-yl)benzimidazole] registered a concentration for half-maximal inhibition (IC50) of 0.0001 to 1 µM.

For `CC(C)(C)n1cnc2ccc(-c3c[nH]c4ncc(-c5ccc(F)c(C#N)c5)nc34)cc21` [P-230, 5-[7-(3-tert-butylbenzimidazol-5-yl)-5H-pyrrolo[2,3-b]pyrazin-2-yl]-2-fluoro-benzonitrile], the half-maximal inhibitory concentration (IC50) was 0.0001 to 1 µM. In the case of `CC(C)(C)n1cnc2ccc(-c3c[nH]c4ncc(C#Cc5cccc(OC(F)(F)F)c5)nc34)cc21` [P-249, 7-(3-tert-butylbenzimidazol-5-yl)-2-[2-[3-(trifluoromethoxy)phenyl]ethynyl]-5H-pyrrolo[2,3-b]pyrazine] it was 0.0001 to 1 µM; in that of `COc1cc(C(=O)Nc2cnc3[nH]cc(-c4ccc5ncn(C6CCCNC6)c5c4)c3c2)ccn1` (stereo not drawn) [P-247, 2-methoxy-N-[3-[3-(3-piperidyl)benzimidazol-5-yl]-1H-pyrrolo[2,3-b]pyridin-5-yl]pyridine-4-carboxamide], 0.0001 to 1 µM; in that of `CC(C)(C)n1cnc2ccc(-c3c[nH]c4ncc(-c5cnn(CC(F)(F)F)c5)nc34)cc21` [P-256, 7-(3-tert-butylbenzimidazol-5-yl)-2-[1-(2,2,2-trifluoroethyl)pyrazol-4-yl]-5H-pyrrolo[2,3-b]pyrazine], 0.0001 to 1 µM.

`CC(C)(C)n1cnc2ccc(-c3c[nH]c4ncc(-c5cnn(C(F)F)c5)cc34)cc21` [P-251, 1-tert-butyl-6-[5-[1-(difluoromethyl)pyrazol-4-yl]-1H-pyrrolo[2,3-b]pyridin-3-yl]benzimidazole] yielded an IC50 of 0.0001 to 1 µM. In the case of `O=S(=O)(c1cccc(-c2cnc3[nH]cc(-c4ccc5ncn(C6CCCNC6)c5c4)c3n2)c1)N1CCCC1` (stereo not drawn) [P-237, 7-[3-(3-piperidyl)benzimidazol-5-yl]-2-(3-pyrrolidin-1-ylsulfonylphenyl)-5H-pyrrolo[2,3-b]pyrazine] it was 0.0001 to 1 µM; in that of `CC(C)(CO)n1cnc2ccc(-c3c[nH]c4ncc(-c5cccc(NS(C)(=O)=O)c5)nc34)cc21` [P-115, N-[3-[7-[3-(2-hydroxy-1,1-dimethyl-ethyl)benzimidazol-5-yl]-5H-pyrrolo[2,3-b]pyrazin-2-yl]phenyl]methanesulfonamide], 0.0001 to 1 µM; in that of `CCCS(=O)(=O)Nc1cccc(-c2cnc3[nH]cc(-c4ccc5ncn(C6CCCNC6)c5c4)c3c2)c1` (stereo not drawn) [P-217, N-[3-[3-[3-(3-piperidyl)benzimidazol-5-yl]-1H-pyrrolo[2,3-b]pyridin-5-yl]phenyl]propane-1-sulfonamide], 0.0001 to 1 µM. In the case of `CC(C)(C)n1cnc2ccc(-c3c[nH]c4ncc(-c5cnn(CC(F)(F)F)c5)cc34)cc21` [P-252, 1-tert-butyl-6-[5-[1-(2,2,2-trifluoroethyl)pyrazol-4-yl]-1H-pyrrolo[2,3-b]pyridin-3-yl]benzimidazole] it was 0.0001 to 1 µM; in that of `N#Cc1cc(-c2cnc3[nH]cc(-c4ccc5ncn(C6CCCNC6)c5c4)c3c2)ccc1F` (stereo not drawn) [P-208, 2-fluoro-5-[3-[3-(3-piperidyl)benzimidazol-5-yl]-1H-pyrrolo[2,3-b]pyridin-5-yl]benzonitrile], 0.0001 to 1 µM; in that of `COc1ncc(-c2cnc3[nH]cc(-c4ccc5ncn(C6CCCNC6)c5c4)c3n2)cn1` (stereo not drawn) [P-264, 2-(2-methoxypyrimidin-5-yl)-7-[3-(3-piperidyl)benzimidazol-5-yl]-5H-pyrrolo[2,3-b]pyrazine], 0.0001 to 1 µM. In turn, `COc1ncccc1C#Cc1cnc2[nH]cc(-c3ccc4ncn(C(C)(C)C)c4c3)c2n1` [P-250, 7-(3-tert-butylbenzimidazol-5-yl)-2-[2-(2-methoxy-3-pyridyl)ethynyl]-5H-pyrrolo[2,3-b]pyrazine] gave a concentration for half-maximal inhibition (IC50) of 0.0001 to 1 µM.

Molecule `COc1cnc2[nH]cc(-c3ccc4ncn(Cc5ccc(F)cc5)c4c3)c2c1` [P-110, 1-[(4-fluorophenyl)methyl]-6-(5-methoxy-1H-pyrrolo[2,3-b]pyridin-3-yl)benzimidazole] gave an IC50 of 0.0001 to 1 µM.

The molecule `COc1cnc2[nH]cc(-c3ccc4ncn(-c5ccc(Cl)cc5)c4c3)c2c1` [P-104, 1-(4-chlorophenyl)-6-(5-methoxy-1H-pyrrolo[2,3-b]pyridin-3-yl)benzimidazole] came in with a half-maximal inhibitory concentration (IC50) of 0.0001 to 1 µM. Consider `N#Cc1cccc(C#Cc2cnc3[nH]cc(-c4ccc5ncn(C6CCCNC6)c5c4)c3c2)c1` (stereo not drawn) [P-243, 3-[2-[3-[3-(3-piperidyl)benzimidazol-5-yl]-1H-pyrrolo[2,3-b]pyridin-5-yl]ethynyl]benzonitrile], for which the half-inhibitory concentration (IC50) lay within 0.0001 to 1 µM. The figure for `N#Cc1cccc(-c2cnc3[nH]cc(-c4ccc5ncn(-c6ccc(F)c(Cl)c6)c5c4)c3c2)c1` [P-210, 3-[3-[3-(3-chloro-4-fluoro-phenyl)benzimidazol-5-yl]-1H-pyrrolo[2,3-b]pyridin-5-yl]benzonitrile] is 0.0001 to 1 µM. The figure for `N#Cc1cc(-c2cnc3[nH]cc(-c4ccc5ncn(C6CCCNC6)c5c4)c3n2)ccc1F` (stereo not drawn) [P-238, 2-fluoro-5-[7-[3-(3-piperidyl)benzimidazol-5-yl]-5H-pyrrolo[2,3-b]pyrazin-2-yl]benzonitrile] is 0.0001 to 1 µM; for `C#Cc1cnc2[nH]cc(-c3ccc4ncn(C(C)(C)C)c4c3)c2n1` [P-259, 7-(3-tert-butylbenzimidazol-5-yl)-2-ethynyl-5H-pyrrolo[2,3-b]pyrazine] it is 0.0001 to 1 µM.
